Experimental data from PubChem BioAssay AID248 (DTP/NCI, 2004).
Where “and” joins values, the source holds several entries; their conditions need not be identical. Identical values can stand only once. Toxic doses and inconclusive results are not listed. Rule as the data show it: active = T/C of 150% or more; inactive = T/C below 125%.

Test system: L1210 leukemia ip in BDF1 mice, survival T/C
Test: NCI In Vivo Anticancer Drug Screen. Data for tumor model L1210 Leukemia (intraperitoneal) in B6D2F1 (BDF1) mice
Conditions: endpoint: mean survival time, higher = longer survival
In short: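 Read-out is survival time, reported as the treated-group measurement over the vehicle-control measurement.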

[1] = dose: 25.0 mg/kg/injection, schedule: Q01DX009 (ip), vehicle: Klucel (hydroxypropylcellulose) (HPC)
[2] = dose: 50.0 mg/kg/injection, schedule: Q01DX009 (ip), vehicle: Klucel (hydroxypropylcellulose) (HPC)
[3] = dose: 100.0 mg/kg/injection, schedule: Q01DX009 (ip), vehicle: saline with Tween-80
[4] = dose: 200.0 mg/kg/injection, schedule: Q01DX009 (ip), vehicle: saline with Tween-80
[5] = dose: 100.0 mg/kg/injection, schedule: Q04DX003 (ip), vehicle: Klucel (hydroxypropylcellulose) (HPC)
[6] = dose: 200.0 mg/kg/injection, schedule: Q04DX003 (ip), vehicle: Klucel (hydroxypropylcellulose) (HPC)
[7] = dose: 400.0 mg/kg/injection, schedule: Q04DX003 (ip), vehicle: Klucel (hydroxypropylcellulose) (HPC)
[8] = dose: 100.0 mg/kg/injection, schedule: Q01DX001 (ip), vehicle: Klucel (hydroxypropylcellulose) (HPC)
[9] = dose: 100.0 mg/kg/injection, schedule: Q01DX009 (ip), vehicle: Klucel (hydroxypropylcellulose) (HPC)
[10] = dose: 200.0 mg/kg/injection, schedule: Q01DX001 (ip), vehicle: Klucel (hydroxypropylcellulose) (HPC)
[11] = dose: 200.0 mg/kg/injection, schedule: Q01DX009 (ip), vehicle: Klucel (hydroxypropylcellulose) (HPC)
[12] = dose: 400.0 mg/kg/injection, schedule: Q01DX001 (ip), vehicle: Klucel (hydroxypropylcellulose) (HPC)
[13] = dose: 400.0 mg/kg/injection, schedule: Q01DX009 (ip), vehicle: Klucel (hydroxypropylcellulose) (HPC)
[14] = dose: 100.0 mg/kg/injection, schedule: Q01DX001 (ip), vehicle: carboxymethylcellulose (CMC)
[15] = dose: 200.0 mg/kg/injection, schedule: Q01DX001 (ip), vehicle: carboxymethylcellulose (CMC)
[16] = dose: 400.0 mg/kg/injection, schedule: Q01DX001 (ip), vehicle: carboxymethylcellulose (CMC)
[17] = dose: 100.0 mg/kg/injection, schedule: Q04DX002 (ip), vehicle: Klucel (hydroxypropylcellulose) (HPC)
[18] = dose: 200.0 mg/kg/injection, schedule: Q04DX002 (ip), vehicle: Klucel (hydroxypropylcellulose) (HPC)

Measured: T/C

N#C/C(=C\c1cccc2ccccc12)c1ccc(Cl)cc1
inactive: dose: 87.5 mg/kg/injection, schedule: Q01DX009 (ip), vehicle: Klucel (hydroxypropylcellulose) (HPC) 95 % of control | dose: 175.0 mg/kg/injection, schedule: Q01DX009 (ip), vehicle: Klucel (hydroxypropylcellulose) (HPC) 96 % of control | dose: 350.0 mg/kg/injection, schedule: Q01DX009 (ip), vehicle: Klucel (hydroxypropylcellulose) (HPC) 97 % of control

O=C(CCN1CC1)Nc1ccccc1
inactive: dose: 3.12 mg/kg/injection, schedule: Q01DX009 (ip), vehicle: Klucel (hydroxypropylcellulose) (HPC) 110 % of control | dose: 6.25 mg/kg/injection, schedule: Q01DX009 (ip), vehicle: Klucel (hydroxypropylcellulose) (HPC) 108 % of control | dose: 12.5 mg/kg/injection, schedule: Q01DX009 (ip), vehicle: Klucel (hydroxypropylcellulose) (HPC) 106 % of control | dose: 12.5 mg/kg/injection, schedule: Q04DX003 (ip), vehicle: Klucel (hydroxypropylcellulose) (HPC) 107 % of control | [1] 106 % of control | dose: 25.0 mg/kg/injection, schedule: Q04DX003 (ip), vehicle: Klucel (hydroxypropylcellulose) (HPC) 91 % of control | [2] 102 % of control | dose: 50.0 mg/kg/injection, schedule: Q04DX003 (ip), vehicle: Klucel (hydroxypropylcellulose) (HPC) 95 % of control | dose: 100.0 mg/kg/injection, schedule: Q04DX003 (ip), vehicle: saline 91 % of control

Cc1cc(NC(=O)SCCOC(=O)COc2ccc(Cl)cc2)ccc1Cl
inactive: [3] 94 % of control | [4] 88 % of control | dose: 400.0 mg/kg/injection, schedule: Q01DX009 (ip), vehicle: saline with Tween-80 90 % of control

COc1ccc(C(C#N)N2CCCCC2)cc1 (configuration not stated)
inactive: [1] 102 % of control | [2] 101 % of control | [5] 95 % of control | [6] 111 % of control | [7] 101 % of control

CSc1ncc(COC(C)=O)c(N)n1
inactive: [8] 97 % of control | [9] 102 % of control | [10] 99 % of control | [11] 96 % of control | [12] 92 % of control | [13] 104 % of control

CC(=O)OCCC/C(=C/c1cc2ccccc2c2ccccc12)[N+](=O)[O-]
inactive: [14] 95 % of control | [15] 95 % of control | [16] 97 % of control

CN(C)C(=Nc1ccccc1)N(C)N
inactive: dose: 37.5 mg/kg/injection, schedule: Q04DX003 (ip), vehicle: saline 102 % of control | dose: 75.0 mg/kg/injection, schedule: Q04DX003 (ip), vehicle: saline 101 % of control | dose: 150.0 mg/kg/injection, schedule: Q04DX003 (ip), vehicle: saline 102 % of control

Nc1ccc(CC(=O)O)cc1
inactive: [8] 97 % of control | [10] 101 % of control | [12] 88 % of control

Cc1cccc(C)[n+]1CC(=O)CCCCCCC(=O)C[n+]1c(C)cccc1C
inactive: dose: 0.25 mg/kg/injection, schedule: Q04DX003 (ip), vehicle: saline 98 % of control | dose: 0.5 mg/kg/injection, schedule: Q04DX003 (ip), vehicle: saline 105 % of control | dose: 1.0 mg/kg/injection, schedule: Q04DX003 (ip), vehicle: saline 101 % of control

C=CCC(O)CCCCC (configuration not stated)
inactive: dose: 50.0 mg/kg/injection, schedule: Q01DX001 (ip), vehicle: carboxymethylcellulose (CMC) 101 % of control | [14] 92 % of control | [15] 97 % of control | [16] 106 % of control

NC(N)=NCCCS
inactive: dose: 75.0 mg/kg/injection, schedule: Q01DX001 (ip), vehicle: saline 104 % of control | dose: 150.0 mg/kg/injection, schedule: Q01DX001 (ip), vehicle: saline 104 % of control | dose: 300.0 mg/kg/injection, schedule: Q01DX001 (ip), vehicle: saline 104 % of control

COc1c(NC(=O)CC(C)=O)cccc1NC(=O)CC(C)=O
inactive: [9] 108 % of control | [5] 100 % of control | [11] 111 % of control | [6] 103 % of control | [13] 97 % of control | [7] 94 % of control

CC1([N+](=O)[O-])COP(=O)(NCCCN2CCOCC2)OC1 (configuration not stated)
inactive: [14] 97 % of control | [15] 97 % of control | [16] 97 % of control

O=C(O)c1ccccc1-c1ccccc1C(=O)Nc1ccc2c(c1)C(=O)c1ccccc1-2
inactive: dose: 100.0 mg/kg/injection, schedule: Q04DX003 (ip), vehicle: saline with Tween-80 104 % of control | dose: 200.0 mg/kg/injection, schedule: Q04DX003 (ip), vehicle: saline with Tween-80 101 % of control | dose: 400.0 mg/kg/injection, schedule: Q04DX003 (ip), vehicle: saline with Tween-80 98 % of control

Cc1cccc2cc3cccc[n+]3cc12
inactive: dose: 1.56 mg/kg/injection, schedule: Q04DX003 (ip), vehicle: saline 101 % of control | dose: 3.12 mg/kg/injection, schedule: Q01DX009 (ip), vehicle: saline 96 % of control | dose: 3.12 mg/kg/injection, schedule: Q04DX003 (ip), vehicle: saline 93 % of control | dose: 6.25 mg/kg/injection, schedule: Q01DX009 (ip), vehicle: saline 96 % of control | dose: 6.25 mg/kg/injection, schedule: Q04DX003 (ip), vehicle: saline 97 % of control | dose: 12.5 mg/kg/injection, schedule: Q04DX003 (ip), vehicle: saline 100 % of control

N#Cc1ccc(Cl)cc1
inactive: [17] 100 % of control | [18] 102 % of control

Cn1c(=O)c2c(nc(NCC[N+](C)(C)C)n2C)n(C)c1=O
inactive: dose: 15.0 mg/kg/injection, schedule: Q01DX001 (ip), vehicle: saline 92 % of control | dose: 30.0 mg/kg/injection, schedule: Q01DX001 (ip), vehicle: saline 97 % of control

CN(C)C(=O)Nc1ccc(C#N)cc1
inactive: [17] 89 % of control | [18] 103 % of control | dose: 400.0 mg/kg/injection, schedule: Q04DX002 (ip), vehicle: Klucel (hydroxypropylcellulose) (HPC) 106 % of control

O=C1NC(=O)C(c2ccc(Cl)cc2)N1 (configuration not stated)
inactive: dose: 50.0 mg/kg/injection, schedule: Q01DX001 (ip), vehicle: saline 100 % of control | dose: 100.0 mg/kg/injection, schedule: Q01DX001 (ip), vehicle: saline 94 % of control | dose: 200.0 mg/kg/injection, schedule: Q01DX001 (ip), vehicle: saline 97 % of control | dose: 400.0 mg/kg/injection, schedule: Q01DX001 (ip), vehicle: saline 96 % of control

O=C(Nc1cc(C(F)(F)F)ccc1Cl)Oc1ccc(Cl)cc1Cc1ccccc1
inactive: [1] 93 % of control | [2] 88 % of control | [9] 101 % of control and 86 % of control and 88 % of control

CC(=O)c1cccc(NC(=O)Nc2ccc(S(N)(=O)=O)cc2)c1
inactive: [3] 105 % of control | [4] 97 % of control

Nc1nc(N)c2c(n1)CCP(c1ccccc1)C2 (configuration not stated)
inactive: dose: 12.5 mg/kg/injection, schedule: Q04DX003 (ip), vehicle: saline with Tween-80 98 % of control | dose: 25.0 mg/kg/injection, schedule: Q04DX003 (ip), vehicle: saline with Tween-80 96 % of control | dose: 50.0 mg/kg/injection, schedule: Q04DX003 (ip), vehicle: saline with Tween-80 95 % of control
